Laboratory results published in ChEMBL document CHEMBL1156836, “4-Aryl-4-oxo-N-phenyl-2-aminylbutyramides as acetyl- and butyrylcholinesterase inhibitors. Preparation, anticholinesterase activity, docking study, and 3D structure-activity relationship based on molecular interaction fields” (Bioorg Med Chem, 2010).
Activity calls are given as the source filed them. The calls are words filed in the database; no cut-off is given here.

Columns and labels:
[1] = target: T1, Acetylcholinesterase (Electrophorus electricus, UniProt O42275)
Description: (§1) Inhibition of electric eel AChE by Ellman's method

[2] = target: T2, Cholinesterase (Equus caballus, UniProt P81908)
Description: (§2) Inhibition of horse serum BChE by Ellman's method

[3] = target: Cholinesterase (Equus caballus) (UniProt P81908); assay: Inhibition of horse serum BChE at 40 uM by Ellman's method
[4] = target: T1, Acetylcholinesterase; remark: listed apart in the source
Description: as §1

[5] = target: Cholinesterase (Equus caballus) (UniProt P81908); assay: Inhibition of horse serum BChE at 100 uM by Ellman's method
[6] = target: T2, Cholinesterase; remark: listed apart in the source
Description: as §2

[7] = target: Cholinesterase (Equus caballus) (UniProt P81908); assay: Inhibition of horse serum BChE at 70 uM by Ellman's method
[8] = target: Cholinesterase (Equus caballus) (UniProt P81908); assay: Mixed type inhibition of horse serum BChE by Ellman's method
[9] = target: Acetylcholinesterase (Electrophorus electricus) (UniProt O42275); assay: Mixed type inhibition of electric eel AChE by Ellman's method
[10] = target: Acetylcholinesterase (Electrophorus electricus) (UniProt O42275); assay: Inhibition of electric eel AChE at 100 uM by Ellman's method
[11] = target: Cholinesterase (Equus caballus) (UniProt P81908); assay: Inhibition of horse serum BChE at 15 uM by Ellman's method
[12] = target: T2, Cholinesterase; assay: Inhibition of horse serum BChE by Lineweaver-Burke plot
[13] = target: Cholinesterase (Equus caballus) (UniProt P81908); assay: Inhibition of horse serum BChE at 30 uM by Ellman's method

Acetylcholinesterase (Electrophorus electricus), sequence (O42275 24-633 limits assumed): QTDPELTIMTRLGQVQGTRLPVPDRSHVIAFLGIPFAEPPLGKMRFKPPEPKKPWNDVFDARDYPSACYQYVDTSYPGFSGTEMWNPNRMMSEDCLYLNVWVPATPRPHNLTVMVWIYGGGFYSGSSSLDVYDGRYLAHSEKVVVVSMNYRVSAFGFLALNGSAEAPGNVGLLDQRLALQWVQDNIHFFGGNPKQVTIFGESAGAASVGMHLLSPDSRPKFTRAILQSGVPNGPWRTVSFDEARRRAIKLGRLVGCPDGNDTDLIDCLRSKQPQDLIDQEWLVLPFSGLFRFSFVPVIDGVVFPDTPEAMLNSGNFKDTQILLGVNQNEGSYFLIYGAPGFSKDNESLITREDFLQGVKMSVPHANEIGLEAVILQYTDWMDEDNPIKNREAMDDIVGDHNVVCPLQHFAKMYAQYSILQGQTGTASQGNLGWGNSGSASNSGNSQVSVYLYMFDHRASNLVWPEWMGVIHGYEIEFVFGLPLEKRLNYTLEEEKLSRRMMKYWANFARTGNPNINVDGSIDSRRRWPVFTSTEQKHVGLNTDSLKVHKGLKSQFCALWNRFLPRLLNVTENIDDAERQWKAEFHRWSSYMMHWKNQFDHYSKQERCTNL
T1 sequence (O42275 whole entry): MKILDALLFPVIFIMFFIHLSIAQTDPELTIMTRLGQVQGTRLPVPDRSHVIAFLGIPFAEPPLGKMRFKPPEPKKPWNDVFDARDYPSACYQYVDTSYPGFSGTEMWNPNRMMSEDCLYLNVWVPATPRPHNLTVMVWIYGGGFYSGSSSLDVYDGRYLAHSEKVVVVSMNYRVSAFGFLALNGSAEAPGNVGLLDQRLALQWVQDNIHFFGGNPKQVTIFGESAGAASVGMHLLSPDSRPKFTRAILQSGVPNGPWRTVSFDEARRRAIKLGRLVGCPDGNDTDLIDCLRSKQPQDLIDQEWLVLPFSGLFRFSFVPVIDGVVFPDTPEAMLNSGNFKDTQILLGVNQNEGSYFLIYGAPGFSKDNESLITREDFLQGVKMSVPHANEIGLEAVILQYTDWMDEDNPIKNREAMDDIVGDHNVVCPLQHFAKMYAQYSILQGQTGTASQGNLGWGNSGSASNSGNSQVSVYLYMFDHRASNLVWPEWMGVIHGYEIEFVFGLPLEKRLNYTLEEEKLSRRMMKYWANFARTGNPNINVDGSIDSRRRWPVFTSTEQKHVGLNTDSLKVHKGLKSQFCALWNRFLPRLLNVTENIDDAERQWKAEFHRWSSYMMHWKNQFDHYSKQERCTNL
T2 sequence (P81908 whole entry): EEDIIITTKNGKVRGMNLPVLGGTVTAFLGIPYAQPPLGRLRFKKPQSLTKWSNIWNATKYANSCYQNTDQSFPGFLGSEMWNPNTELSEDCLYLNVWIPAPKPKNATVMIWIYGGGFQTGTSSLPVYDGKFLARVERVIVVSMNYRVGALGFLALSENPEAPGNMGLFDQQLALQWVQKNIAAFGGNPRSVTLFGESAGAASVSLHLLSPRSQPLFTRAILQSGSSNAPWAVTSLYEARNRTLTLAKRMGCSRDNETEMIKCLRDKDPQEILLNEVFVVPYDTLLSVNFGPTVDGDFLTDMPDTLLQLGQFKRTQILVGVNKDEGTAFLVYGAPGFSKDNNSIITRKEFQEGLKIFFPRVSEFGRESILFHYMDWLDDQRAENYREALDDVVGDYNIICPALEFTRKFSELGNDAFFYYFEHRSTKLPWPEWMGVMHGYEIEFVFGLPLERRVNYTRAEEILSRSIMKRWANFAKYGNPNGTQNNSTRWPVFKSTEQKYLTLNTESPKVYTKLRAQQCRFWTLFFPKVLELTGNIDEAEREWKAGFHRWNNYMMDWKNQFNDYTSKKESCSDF
Cholinesterase (Equus caballus), sequence (P81908 whole entry): as above

Row | Structure (SMILES) | IC50 [1] | IC50 [2] | IC50 [4] [µM] | IC50 [6] [µM] | also measured
1 | Cc1ccc(C)c(C(=O)CC(NCCCCCCCCNC(CC(=O)c2cc(C)ccc2C)C(=O)Nc2ccccc2)C(=O)Nc2ccccc2)c1 (mixture of isomers) | ND(Insoluble) | ND(Insoluble) | – | – | –
2 | O=C(CC(C(=O)Nc1ccccc1)N1CCCCC1)c1ccc(Cl)cc1 (racemic) | ND(Insoluble) | ND(Insoluble) | – | – | –
3 | O=C(CC(C(=O)Nc1ccccc1)N1CCOCC1)c1ccc2c(c1)CCCC2 (racemic) | – | – | > 30 | – | inhibition [3]: 13%
4 | O=C(CC(C(=O)Nc1ccccc1)N1CCCCC1)c1ccccc1 (racemic) | – | – | > 100 | – | inhibition [5]: 34.8%
5 | O=C(CC(C(=O)Nc1ccccc1)N1CCOCC1)c1ccc(Cl)cc1 (racemic) | ND(Insoluble) | ND(Insoluble) | – | – | –
6 | O=C(CC(C(=O)Nc1ccccc1)n1ccnc1)c1ccc(Cl)cc1 (racemic) | ND(Insoluble) | ND(Insoluble) | – | – | –
7 | CC(C)c1ccc(C(=O)CC(C(=O)Nc2ccccc2)N2CCCCC2)cc1 (racemic) | – | – | – | 7.06 | –
8 | Cc1ccc(C)c(C(=O)CC(C(=O)Nc2ccccc2)N2CCOCC2)c1 (racemic) | – | – | > 100 | 34.1 | –
9 | O=C(CC(C(=O)Nc1ccccc1)n1ccnc1)c1ccc2c(c1)CCCC2 (racemic) | – | – | – | – | inhibition [3]: 17%
10 | O=C(CC(NCCCCCCCCNC(CC(=O)c1ccc2c(c1)CCCC2)C(=O)Nc1ccccc1)C(=O)Nc1ccccc1)c1ccc2c(c1)CCCC2 (mixture of isomers) | ND(Insoluble) | ND(Insoluble) | – | – | –
11 | Cc1ccc(C)c(C(=O)CC(C(=O)Nc2ccccc2)n2ccnc2)c1 (racemic) | – | – | 27.9 | – | inhibition [7]: 42%
12 | CC(C)c1ccc(C(=O)CC(C(=O)Nc2ccccc2)n2ccnc2)c(C(C)C)c1 (racemic) | – | – | – | > 20 | inhibition [8]: Active; inhibition [9]: Active
13 | O=C(CC(C(=O)Nc1ccccc1)N1CCOCC1)c1ccccc1 (racemic) | – | – | > 100 | – | inhibition [5]: 21.6%
14 | COc1ccc(C(=O)CC(C(=O)Nc2ccccc2)N2CCOCC2)cc1 (racemic) | – | – | – | > 100 | inhibition [10]: 38.7%
15 | Cc1ccc(C)c(C(=O)CC(C(=O)Nc2ccccc2)N2CCCCC2)c1 (racemic) | – | – | > 10 | 17.2 | –
16 | CC(C)c1ccc(C(=O)CC(NCCCCCCCCNC(CC(=O)c2ccc(C(C)C)cc2)C(=O)Nc2ccccc2)C(=O)Nc2ccccc2)cc1 (mixture of isomers) | ND(Insoluble) | ND(Insoluble) | – | – | –
17 | O=C(CC(C(=O)Nc1ccccc1)N1CCCCC1)c1ccc2c(c1)CCCC2 (racemic) | – | – | – | – | inhibition [11]: 21.5%
18 | COc1ccc(C(=O)CC(NCCCCCCCCNC(CC(=O)c2ccc(OC)cc2)C(=O)Nc2ccccc2)C(=O)Nc2ccccc2)cc1 (mixture of isomers) | ND(Insoluble) | ND(Insoluble) | – | – | –
19 | COc1ccc(C(=O)CC(C(=O)Nc2ccccc2)N2CCCCC2)cc1 (racemic) | – | – | > 10 | > 40 | –
20 | O=C(CC(NCCCCCCCCNC(CC(=O)c1ccc(Cl)cc1)C(=O)Nc1ccccc1)C(=O)Nc1ccccc1)c1ccc(Cl)cc1 (mixture of isomers) | ND(Insoluble) | ND(Insoluble) | – | – | –
21 | COc1ccc(C(=O)CC(C(=O)Nc2ccccc2)n2ccnc2)cc1 (racemic) | – | – | 7.85 | 30.4 | –
22 | CC(C)c1ccc(C(=O)CC(NCCCCCCCCNC(CC(=O)c2ccc(C(C)C)cc2C(C)C)C(=O)Nc2ccccc2)C(=O)Nc2ccccc2)c(C(C)C)c1 (mixture of isomers) | ND(Insoluble) | ND(Insoluble) | – | – | –
23 | CC(C)c1ccc(C(=O)CC(C(=O)Nc2ccccc2)N2CCOCC2)c(C(C)C)c1 (racemic) | – | – | – | 2.48 | inhibition [8]: Active; inhibition [9]: Active; Ki [12]: 3.18 µM
24 | CC(C)c1ccc(C(=O)CC(C(=O)Nc2ccccc2)N2CCOCC2)cc1 (racemic) | – | – | > 100 | – | inhibition [3]: 27.2%
25 | CC(C)c1ccc(C(=O)CC(C(=O)Nc2ccccc2)n2ccnc2)cc1 (racemic) | – | – | – | – | inhibition [13]: 10%
26 | CC(C)c1ccc(C(=O)CC(C(=O)Nc2ccccc2)N2CCCCC2)c(C(C)C)c1 (racemic) | – | – | – | – | inhibition [11]: 39.9%
